The source of these data is ChEMBL document CHEMBL1221200, “Diarylquinolines target subunit c of mycobacterial ATP synthase” (Nat Chem Biol, 2007).

Experiment [1] relates to Mycobacterium tuberculosis. Briefly: Antimicrobial activity against Mycobacterium tuberculosis H37Rv isolate LV13 expressing ATP synthase atpE I66M mutant protein by 7H9 broth dilution method. It is filed as functional.
For experiment [2], the system named is Mycobacterium tuberculosis. Briefly: Antimicrobial activity against Mycobacterium tuberculosis H37Rv isolate BK12 expressing ATP synthase atpE A63P mutant protein by 7H9 broth dilution method. It is filed as functional.
The subject of experiment [3] is Mycobacterium tuberculosis. Briefly: Antimicrobial activity against Mycobacterium tuberculosis H37Rv isolate LV13 expressing ATP synthase atpE I66M mutant protein by 7H10 broth dilution method. It counts as functional. For orientation: Broth dilution looks for growth in wells or tubes with falling amounts of substance.
Experiment [4] relates to Mycobacterium tuberculosis. Kind of experiment: Antimicrobial activity against Mycobacterium tuberculosis H37Rv isolate BK12 expressing ATP synthase atpE A63P mutant protein by 7H10 broth dilution method. It counts as functional.
The test system of experiment [5] is Mycobacterium tuberculosis. Kind of experiment: Ratio of MIC for Mycobacterium tuberculosis H37Rv isolate LV13 expressing ATP synthase atpE I66M mutant protein to MIC for Mycobacterium tuberculosis H37Rv. It counts as functional.
Experiment [6] has as its system Mycobacterium tuberculosis. Briefly: Ratio of MIC for Mycobacterium tuberculosis H37Rv isolate BK12 expressing ATP synthase atpE A63P mutant protein to MIC for Mycobacterium tuberculosis H37Rv. It counts as functional.
Experiment [7] has as its system ATP synthase (Mycobacterium tuberculosis), P9WPU9+P9WPU5+P9WPU7+P9WPV5+P9WPS1+P9WPV1+P9WPV7+P9WPV3 [A63P]. Briefly: Inhibition of Mycobacterium tuberculosis isolate BK12 ATP synthase subunit c A63P mutant-mediated ATP synthesis after 24 hrs by luminometry.
The subject of experiment [8] is ATP synthase (Mycobacterium tuberculosis), P9WPU9+P9WPU5+P9WPU7+P9WPV5+P9WPS1+P9WPV1+P9WPV7+P9WPV3 [I66M]. Briefly: Inhibition of Mycobacterium tuberculosis isolate LV13 ATP synthase subunit c I66M mutant-mediated ATP synthesis after 24 hrs by luminometry.
The test system of experiment [9] is Mycobacterium tuberculosis. Kind of experiment: Antimicrobial activity against wild-type Mycobacterium tuberculosis isolate BK12 expressing ATP synthase AtpE A63P mutant protein assessed as growth inhibition in early log-phase by 7H10 agar dilution method. It counts as functional, organism-based. In general terms: In agar dilution the substance is mixed into plates at graded concentrations.

Experiment [10] deals with Mycobacterium tuberculosis. Briefly: Antimicrobial activity against wild-type Mycobacterium tuberculosis isolate LV13 expressing ATP synthase AtpE I66M mutant protein assessed as growth inhibition in early log-phase by 7H10 agar dilution method. It is filed as functional, organism-based.

The structures appear in SMILES notation. In brackets after ≈: the same amount, converted by molar mass. Activity calls are given as the source filed them. The rule behind the calls is not given here.

As a reminder, the MIC is the lowest concentration that inhibits growth of the organism. For `COc1nc2ccc(Br)cc2cc1[C@@H](c1ccccc1)[C@@](O)(CCN(C)C)c1cccc2ccccc12` [BEDAQUILINE], the minimum inhibitory concentration (MIC) in experiment [1] was determined as 11 µg/mL (≈ 19.8 µM); in experiment [2], 11 µg/mL (≈ 19.8 µM); in experiment [3], 13 µg/mL (≈ 23.4 µM); in [4], 13 µg/mL (≈ 23.4 µM). For the same compound, the Ratio in [5] and in [6] was more than 200 each time.

As to `COc1nc2ccc(Br)cc2cc1[C@@H](c1ccccc1)[C@@](O)(CCN(C)C)c1cccc2ccccc12`, the inhibition entry in experiment [7] and in [8] was “inactive” each time. Also, the result in experiment [9] and in experiment [10] was Active.
